Experimental data taken from ChEMBL document CHEMBL1201862, “PubChem BioAssay data set” (2004).
Counter-ions that a name gives are not always drawn.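 Cultured in 96-well plates, cells were exposed to test compound for 48 hours across five concentrations. GI50 is the concentration that inhibits growth by half.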 Calls of active or inactive are those of the source. Cut-off read from the data, not from the text of the source: active = GI50 up to about 1.1 µM and inactive = higher.

What was measured:
Experiment in all cases: growth of human tumour cells (NCI), 48 h
[1] = test system: SK-MEL-5
[2] = test system: SK-MEL-28
[3] = test system: SK-OV-3
[4] = test system: MDA-MB-435
[5] = test system: CCRF-CEM
[6] = test system: T47D
[7] = test system: 786-0
[8] = test system: MDA-N
[9] = test system: A549
[10] = test system: ACHN
[11] = test system: NCI-H23
[12] = test system: U-251
[13] = test system: PC-3
[14] = test system: SNB-19
[15] = test system: HL-60
[16] = test system: M14
[17] = test system: OVCAR-4
[18] = test system: EKVX
[19] = test system: HT-29
[20] = test system: A498

Question: How did the GI50 [1] turn out when `CC(=O)O[C@@]12[C@@H]3O[C@@]4(O)C[C@]5(C)[C@H]6C[C@@](C(C)C)(O[C@H]5c5ccoc5)O[C@H]1[C@]6(C4)O[C@]2(O)C(C)=CC3(C)C` was run?
Answer: > 100 µM (inactive)

Question: And the GI50 [2]?
Answer: > 100 µM (inactive)

Question: And the GI50 [3]?
Answer: > 100 µM (inactive)

Question: What about the GI50 [4] of the same compound?
Answer: > 100 µM (inactive)

Question: What about the GI50 [5] of the same compound?
Answer: > 100 µM (inactive)

Question: And the GI50 [6]?
Answer: > 100 µM (inactive)

Question: What about the GI50 [7] of the same compound?
Answer: 64.4 µM (inactive)

Question: And the GI50 [8]?
Answer: > 100 µM (inactive)

Question: And the GI50 [9]?
Answer: > 100 µM (inactive)

Question: And the GI50 [10]?
Answer: > 100 µM (inactive)

Question: And the GI50 [11]?
Answer: > 100 µM (inactive)

Question: And the GI50 [12]?
Answer: > 100 µM (inactive)

Question: And the GI50 [13]?
Answer: > 100 µM (inactive)

Question: What about the GI50 [14] of the same compound?
Answer: 63.2 µM (inactive)

Question: What about the GI50 [15] of the same compound?
Answer: > 100 µM (inactive)

Question: What about the GI50 [16] of the same compound?
Answer: > 100 µM (inactive)

Question: And the GI50 [17]?
Answer: > 100 µM (inactive)

Question: And the GI50 [18]?
Answer: > 100 µM (inactive)

Question: What about the GI50 [19] of the same compound?
Answer: > 100 µM (inactive)

Question: For `CCOC(=O)c1nc2ccccc2nc1Nc1ccc(Cl)c(Cl)c1`, which GI50 [1] is on record?
Answer: 21.5 µM (inactive)

Question: What about the GI50 [2] of the same compound?
Answer: > 100 µM (inactive)

Question: What about the GI50 [3] of the same compound?
Answer: 27.7 µM (inactive)

Question: What about the GI50 [4] of the same compound?
Answer: > 100 µM (inactive)

Question: What about the GI50 [5] of the same compound?
Answer: > 10 µM (inactive)

Question: And the GI50 [6]?
Answer: 60.8 µM (inactive)

Question: What about the GI50 [7] of the same compound?
Answer: 29.2 µM (inactive)

Question: And the GI50 [8]?
Answer: 68.1 µM (inactive)

Question: What about the GI50 [9] of the same compound?
Answer: 59.4 µM (inactive)

Question: What about the GI50 [10] of the same compound?
Answer: 76.7 µM (inactive)

Question: And the GI50 [11]?
Answer: 33.7 µM (inactive)

Question: What about the GI50 [12] of the same compound?
Answer: 23.7 µM (inactive)

Question: And the GI50 [14]?
Answer: 27.2 µM (inactive)

Question: What about the GI50 [15] of the same compound?
Answer: 30.8 µM (inactive)

Question: And the GI50 [16]?
Answer: 57.8 µM (inactive)

Question: What about the GI50 [17] of the same compound?
Answer: 27.9 µM (inactive)

Question: And the GI50 [18]?
Answer: 60.5 µM (inactive)

Question: What about the GI50 [19] of the same compound?
Answer: > 100 µM (inactive)

Question: For `COc1cc(C(c2ccc3c(c2)OCO3)C2SCCCS2)cc(OC)c1OC` (centres undefined), which GI50 [1] is on record?
Answer: 3.34 µM (inactive)

Question: And the GI50 [2]?
Answer: 4.91 µM (inactive)

Question: What about the GI50 [3] of the same compound?
Answer: 2.81 µM (inactive)

Question: What about the GI50 [4] of the same compound?
Answer: 0.661 µM (active)

Question: And the GI50 [5]?
Answer: 1.49 µM (inactive)

Question: What about the GI50 [6] of the same compound?
Answer: 3.56 µM (inactive)

Question: What about the GI50 [7] of the same compound?
Answer: 2.74 µM (inactive)

Question: And the GI50 [8]?
Answer: 0.372 µM (active)

Question: And the GI50 [9]?
Answer: 4.22 µM (inactive)

Question: And the GI50 [10]?
Answer: 5.52 µM (inactive)

Question: And the GI50 [20]?
Answer: 1.9 µM (inactive)

Question: What about the GI50 [11] of the same compound?
Answer: 3.76 µM (inactive)

Question: What about the GI50 [12] of the same compound?
Answer: 3.01 µM (inactive)

Question: What about the GI50 [13] of the same compound?
Answer: 3.6 µM (inactive)

Question: What about the GI50 [14] of the same compound?
Answer: 1.86 µM (inactive)

Question: And the GI50 [16]?
Answer: 3.6 µM (inactive)

Question: And the GI50 [17]?
Answer: 6.65 µM (inactive)

Question: And the GI50 [18]?
Answer: 2.79 µM (inactive)

Question: What about the GI50 [19] of the same compound?
Answer: 1.89 µM (inactive)

Question: Which GI50 [1] does the source give for `CC12CCC(=O)C=C1CCC1C2C(O)CC2(C)C(c3csc(N)n3)CCC12.O=S(=O)(O)c1ccc(Br)cc1` (centres undefined) here?
Answer: > 100 µM (inactive)

Question: And the GI50 [2]?
Answer: > 100 µM (inactive)

Question: And the GI50 [3]?
Answer: > 100 µM (inactive)

Question: What about the GI50 [4] of the same compound?
Answer: > 100 µM (inactive)

Question: What about the GI50 [5] of the same compound?
Answer: < 0.01 µM (active)

Question: And the GI50 [6]?
Answer: > 100 µM (inactive)

Question: What about the GI50 [7] of the same compound?
Answer: > 100 µM (inactive)

Question: What about the GI50 [8] of the same compound?
Answer: > 100 µM (inactive)

Question: What about the GI50 [9] of the same compound?
Answer: > 100 µM (inactive)

Question: What about the GI50 [10] of the same compound?
Answer: > 100 µM (inactive)

Question: And the GI50 [20]?
Answer: > 100 µM (inactive)

Question: And the GI50 [11]?
Answer: > 100 µM (inactive)

Question: What about the GI50 [12] of the same compound?
Answer: > 100 µM (inactive)

Question: What about the GI50 [13] of the same compound?
Answer: > 100 µM (inactive)

Question: And the GI50 [14]?
Answer: > 100 µM (inactive)

Question: What about the GI50 [16] of the same compound?
Answer: > 100 µM (inactive)

Question: What about the GI50 [17] of the same compound?
Answer: > 100 µM (inactive)

Question: What about the GI50 [18] of the same compound?
Answer: > 100 µM (inactive)

Question: And the GI50 [19]?
Answer: > 100 µM (inactive)

Question: `Cc1ccc(O)c(-c2cc(-c3ccccc3)nc(/N=C\c3ccccc3)n2)c1` was tested. Which GI50 [1] did it give?
Answer: 31.5 µM (inactive)

Question: What about the GI50 [2] of the same compound?
Answer: > 100 µM (inactive)

Question: And the GI50 [4]?
Answer: > 100 µM (inactive)

Question: And the GI50 [5]?
Answer: 18.6 µM (inactive)

Question: What about the GI50 [6] of the same compound?
Answer: 7.69 µM (inactive)

Question: And the GI50 [7]?
Answer: 32.5 µM (inactive)

Question: And the GI50 [8]?
Answer: 94.2 µM (inactive)

Question: And the GI50 [9]?
Answer: 23.1 µM (inactive)

Question: And the GI50 [10]?
Answer: 13.1 µM (inactive)

Question: And the GI50 [11]?
Answer: 24.4 µM (inactive)

Question: And the GI50 [12]?
Answer: 20.9 µM (inactive)

Question: What about the GI50 [13] of the same compound?
Answer: > 100 µM (inactive)

Question: What about the GI50 [14] of the same compound?
Answer: 29.8 µM (inactive)

Question: And the GI50 [15]?
Answer: 35.2 µM (inactive)

Question: And the GI50 [16]?
Answer: > 100 µM (inactive)

Question: What about the GI50 [17] of the same compound?
Answer: 31.4 µM (inactive)

Question: What about the GI50 [18] of the same compound?
Answer: 47.8 µM (inactive)

Question: What about the GI50 [19] of the same compound?
Answer: > 100 µM (inactive)

Question: `O=C(OCCN1CCCCCC1)C(c1ccsc1)C1CCCCC1` (centres undefined) [CETIEDIL CITRATE] was tested. Which GI50 [2] did it give?
Answer: 20.3 µM (inactive)

Question: What about the GI50 [3] of the same compound?
Answer: 16.9 µM (inactive)

Question: And the GI50 [4]?
Answer: 16.9 µM (inactive)

Question: And the GI50 [5]?
Answer: 15.7 µM (inactive)

Question: What about the GI50 [6] of the same compound?
Answer: 3.28 µM (inactive)

Question: And the GI50 [7]?
Answer: 16.5 µM (inactive)

Question: What about the GI50 [8] of the same compound?
Answer: 14 µM (inactive)

Question: What about the GI50 [9] of the same compound?
Answer: 19.4 µM (inactive)

Question: What about the GI50 [10] of the same compound?
Answer: 17.1 µM (inactive)

Question: What about the GI50 [11] of the same compound?
Answer: 18.5 µM (inactive)

Question: What about the GI50 [12] of the same compound?
Answer: 17.2 µM (inactive)

Question: And the GI50 [13]?
Answer: 18.4 µM (inactive)

Question: And the GI50 [14]?
Answer: 18.7 µM (inactive)

Question: What about the GI50 [15] of the same compound?
Answer: 24.5 µM (inactive)

Question: And the GI50 [16]?
Answer: 17.3 µM (inactive)

Question: And the GI50 [18]?
Answer: 17.1 µM (inactive)

Question: What about the GI50 [19] of the same compound?
Answer: 11.9 µM (inactive)

Question: Which GI50 [1] does the source give for `Cc1cc(S(=O)(=O)Nc2cc(N)n[nH]2)c(SCc2nc(N)nc(N(C)C)n2)cc1Cl` here?
Answer: > 10 µM (inactive)

Question: And the GI50 [2]?
Answer: > 10 µM (inactive)

Question: What about the GI50 [3] of the same compound?
Answer: > 10 µM (inactive)

Question: And the GI50 [5]?
Answer: > 10 µM (inactive)

Question: What about the GI50 [6] of the same compound?
Answer: > 10 µM (inactive)

Question: And the GI50 [7]?
Answer: > 10 µM (inactive)

Question: What about the GI50 [8] of the same compound?
Answer: > 10 µM (inactive)

Question: And the GI50 [9]?
Answer: > 10 µM (inactive)

Question: What about the GI50 [10] of the same compound?
Answer: > 10 µM (inactive)

Question: And the GI50 [20]?
Answer: > 10 µM (inactive)

Question: What about the GI50 [11] of the same compound?
Answer: > 10 µM (inactive)

Question: And the GI50 [12]?
Answer: > 10 µM (inactive)

Question: What about the GI50 [13] of the same compound?
Answer: > 10 µM (inactive)

Question: And the GI50 [14]?
Answer: > 10 µM (inactive)

Question: What about the GI50 [15] of the same compound?
Answer: > 10 µM (inactive)

Question: What about the GI50 [16] of the same compound?
Answer: > 10 µM (inactive)

Question: And the GI50 [17]?
Answer: > 10 µM (inactive)

Question: And the GI50 [18]?
Answer: > 10 µM (inactive)

Question: And the GI50 [19]?
Answer: > 10 µM (inactive)
